How the values were obtained:
Pythium Ultimum = test: Pythium ultimum / liquid culture (seedling damping off); type: cell-based; details: Globisporangium ultimum, potato dextrose broth, 24° C., 2-3 days after application, read-out: disease control (inhibition of growth, photometrically)
[1] = tested on: Mycosphaerella Graminicola(Septoria Tritici); test: Mycosphaerella graminicola (Septoria tritici) / liquid culture (Septoria blotch); type: cell-based; details: Zymoseptoria tritici, PDB potato dextrose broth, 24° C., 4-5 days after application, read-out: disease control (inhibition of growth, photometrically)
Experimental: (§1) 12 Mycosphaerella Graminicola(Septoria Tritici)/Liquid Culture (Septoria Blotch) Conidia of the fungus from cryogenic storage were directly mixed into nutrient broth (PDB potato dextrose broth). After placing a DMSO solution of test compound into a 96-well microtiter plate, the nutrient broth containing the fungal spores was added. The test plates were incubated at 24° C. and the inhibition of growth was determined photometrically 4-5 days after application.

Fusarium Culmorum = test: microbe, parasite or virus in culture; type: cell-based; details: read-out: disease control (inhibition of growth, photometrically)
[2] = tested on: Mycosphaerella Arachidis(Cercospora Arachidicola); test: Mycosphaerella arachidis (Cercospora arachidicola) / liquid culture (early leaf spot); type: cell-based; details: PDB potato dextrose broth, 24° C., 4-5 days after application, read-out: disease control (inhibition of growth, photometrically)
Experimental: as §1, with “11” for “12”, “Arachidis(Cercospora Arachidicola)/Liquid” for “Graminicola(Septoria Tritici)/Liquid”, “(Early Leaf Spot)” for “(Septoria Blotch)”

[3] = tested on: Thanatephorus Cucumeris(Rhizoctonia Solani); test: Thanatephorus cucumeris (Rhizoctonia solani) / liquid culture (foot rot, damping-off); type: cell-based; details: PDB potato dextrose broth, 24° C., 3-4 days after application, read-out: disease control (inhibition of growth, photometrically)
Experimental: 16 Thanatephorus Cucumeris(Rhizoctonia Solani)/Liquid Culture (Foot Rot, Damping-Off) Mycelia fragments of a newly grown liquid culture of the fungus were directly mixed into nutrient broth (PDB potato dextrose broth). After placing a DMSO solution of the test compounds into a 96-well microtiter plate at an application rate of 200 ppm, the nutrient broth containing the fungal material was added. The test plates were incubated at 24° C. and the inhibition of growth was determined photometrically 3-4 days after application.

[4] = tested on: Monographella Nivalis(Microdochium Nivale); test: Monographella nivalis (Microdochium nivale) / liquid culture (foot rot cereals); type: cell-based; details: PDB potato dextrose broth, 24° C., 4-5 days after application, read-out: disease control (inhibition of growth, photometrically)
Experimental: as §1, with “14 Monographella Nivalis(Microdochium Nivale)/Liquid” for “12 Mycosphaerella Graminicola(Septoria Tritici)/Liquid”, “(Foot Rot Cereals)” for “(Septoria Blotch)”

[5] = tested on: Glomerella Lagenarium(Colletotrichum Ladenarium); test: Glomerella lagenarium (Colletotrichum lagenarium) / liquid culture (anthracnose); type: cell-based; details: PDB potato dextrose broth, 24° C., 3-4 days after application, read-out: disease control (inhibition of growth, photometrically)
Experimental: as §1, with “10 Glomerella Lagenarium(Colletotrichum Ladenarium)/Liquid” for “12 Mycosphaerella Graminicola(Septoria Tritici)/Liquid”, “(Anthracnose)” for “(Septoria Blotch)”, “measured” for “determined”, “3-4” for “4-5”

[6] = tested on: Botryotinia Fuckeliana(Botrytis Cinerea); test: Botryotinia fuckeliana (Botrytis cinerea) / liquid culture (gray mould); type: cell-based; details: Vogels broth, 24° C., 3-4 days after application, read-out: disease control (inhibition of growth, photometrically)
Experimental: as §1, with “9 Botryotinia Fuckeliana(Botrytis Cinerea)/Liquid” for “12 Mycosphaerella Graminicola(Septoria Tritici)/Liquid”, “(Gray Mould)” for “(Septoria Blotch)”, “(Vogels” for “(PDB potato dextrose”, “3-4” for “4-5”

Gaeumannomyces Graminis = test: Gaeumannomyces graminis / liquid culture (take-all of cereals); type: cell-based; details: PDB potato dextrose broth, 24° C., 4-5 days after application, read-out: disease control (inhibition of growth, photometrically)
Experimental: 13 Gaeumannomyces Graminis/Liquid Culture (Take-all of Cereals) Mycelial fragments of the fungus from cryogenic storage were directly mixed into nutrient broth (PDB potato dextrose broth). After placing a DMSO solution of test compound into a 96-well microtiter plate, the nutrient broth containing the fungal spores is added. The test plates were incubated at 24° C. and the inhibition of growth was determined photometrically 4-5 days after application.

Sclerotinia Sclerotiorum = test: Sclerotinia sclerotiorum / liquid culture (cottony rot); type: cell-based; details: PDB potato dextrose broth, 24° C., 3-4 days after application, read-out: disease control (inhibition of growth, visually)
Experimental: 17 Sclerotinia Sclerotiorum/Liquid Culture (Cottony Rot) Mycelia fragments of a newly grown liquid culture of the fungus were directly mixed into nutrient broth (PDB potato dextrose broth). After placing a (DMSO) solution of the test compounds into a microtiter plate (96-well format) the nutrient broth containing the fungal material was added. The test plates were incubated at 24° C. and the inhibition of growth was determined visually 3-4 days after application.

[7] = tested on: Puccinia Recondita f. sp. Tritici; test: Puccinia recondita f. sp. tritici / wheat / leaf disc preventative (brown rust); type: in vivo; details: foliar, wheat leaf segments cv Kanzler, inoculated 1 day after application, assessed 7-9 days after application, read-out: disease control
Experimental: 3 Puccinia Recondita f. sp. Tritici/Wheat/Leaf Disc Preventative (Brown Rust) Wheat leaf segments cultivated variety (cv) Kanzler were placed on agar in 24-well plates and sprayed with formulated test compound diluted in water. The leaf disks were inoculated with a spore suspension of the fungus 1 day after application. The inoculated leaf segments were incubated at 19° C. and 75% relative humidity under a light regime of 12/12 h (light/dark) in a climate cabinet and the activity of a compound was assessed as percent disease control compared to untreated when an appropriate level of disease damage appears in untreated check leaf segments (7-9 days after application).

Plasmopara Viticola = test: whole plant or invertebrate; type: in vivo; details: foliar, read-out: disease control
[8] = tested on: Phaeosphaeria Nodorum (Septoria Nodorum); test: Phaeosphaeria nodorum (Septoria nodorum) / wheat / leaf disc preventative (glume blotch); type: in vivo; details: Parastagonospora nodorum, foliar, wheat leaf segments cv Kanzler, inoculated 2 days after application, assessed 5-7 days after application, read-out: disease control
Experimental: 5 Phaeosphaeria Nodorum (Septoria Nodorum)/Wheat/Leaf Disc Preventative (Glume Blotch) Wheat leaf segments cv Kanzler were placed on agar in a 24-well plate and sprayed with formulated test compound diluted in water. The leaf disks were inoculated with a spore suspension of the fungus 2 days after application. The inoculated test leaf disks were incubated at 20° C. and 75% relative humidity under a light regime of 12/12 h (light/dark) in a climate cabinet and the activity of a compound was assessed as percent disease control compared to untreated when an appropriate level of disease damage appears in untreated check leaf disks (5-7 days after application).

Compound: Cc1ccc(-c2cc3c(cc2Cl)COB3O)s1 [Compound 38]
- inhibition at 20 ppm (Pythium Ultimum): ≥ 80%
- inhibition at 20 ppm [1]: ≥ 80%
- inhibition at 20 ppm (Fusarium Culmorum): ≥ 80%
- inhibition at 20 ppm [2]: ≥ 80%
- inhibition at 20 ppm [3]: ≥ 80%
- inhibition at 20 ppm [4]: ≥ 80%
- inhibition at 20 ppm [5]: ≥ 80%
- inhibition at 20 ppm [6]: ≥ 80%
- inhibition at 20 ppm (Gaeumannomyces Graminis): ≥ 80%
- inhibition at 20 ppm (Sclerotinia Sclerotiorum): ≥ 80%
- pest or weed control at 200 ppm [7]: ≥ 80%
- pest or weed control at 200 ppm (Plasmopara Viticola): ≥ 80%

Compound: Cc1cc(-c2cc3c(cc2Cl)COB3O)c(C#N)o1 [Compound 66]
- inhibition at 20 ppm (Pythium Ultimum): ≥ 80%
- inhibition at 20 ppm (Gaeumannomyces Graminis): ≥ 80%
- pest or weed control at 200 ppm [7]: ≥ 80%
- pest or weed control at 200 ppm (Plasmopara Viticola): ≥ 80%

Compound: OB1OCc2cc(Cl)c(-c3cncs3)cc21 [Compound 25]
- inhibition at 20 ppm (Pythium Ultimum): ≥ 80%
- inhibition at 20 ppm [1]: ≥ 80%
- inhibition at 20 ppm (Fusarium Culmorum): ≥ 80%
- pest or weed control at 200 ppm [8]: ≥ 80%
- inhibition at 20 ppm [2]: ≥ 80%
- inhibition at 20 ppm [3]: ≥ 80%
- inhibition at 20 ppm [4]: ≥ 80%
- inhibition at 20 ppm [5]: ≥ 80%
- inhibition at 20 ppm [6]: ≥ 80%
- inhibition at 20 ppm (Gaeumannomyces Graminis): ≥ 80%
- inhibition at 20 ppm (Sclerotinia Sclerotiorum): ≥ 80%
- pest or weed control at 200 ppm (Plasmopara Viticola): ≥ 80%

Compound: OB1OCc2cc(Cl)c(-c3ccco3)cc21 [Compound 2, 5-chloro-6-(2-furyl)-1-hydroxy-3H-2,1-benzoxaborole]
- inhibition at 20 ppm (Pythium Ultimum): ≥ 80%
- inhibition at 20 ppm [1]: ≥ 80%
- melting point: 142 to 147 °C
- inhibition at 20 ppm (Fusarium Culmorum): ≥ 80%
- pest or weed control at 200 ppm [8]: ≥ 80%
- inhibition at 20 ppm [2]: ≥ 80%
- inhibition at 20 ppm [3]: ≥ 80%
- inhibition at 20 ppm [4]: ≥ 80%
- inhibition at 20 ppm [5]: ≥ 80%
- inhibition at 20 ppm [6]: ≥ 80%
- inhibition at 20 ppm (Sclerotinia Sclerotiorum): ≥ 80%
- pest or weed control at 200 ppm (Plasmopara Viticola): ≥ 80%

Compound: OB1OCc2ccc(-c3ncno3)cc21 [Compound 49]
- inhibition at 20 ppm (Pythium Ultimum): ≥ 80%
- inhibition at 20 ppm [1]: ≥ 80%
- melting point: 179 to 180 °C
- inhibition at 20 ppm (Fusarium Culmorum): ≥ 80%
- pest or weed control at 200 ppm [8]: ≥ 80%
- inhibition at 20 ppm [2]: ≥ 80%
- inhibition at 20 ppm [3]: ≥ 80%
- inhibition at 20 ppm [4]: ≥ 80%
- inhibition at 20 ppm [5]: ≥ 80%
- inhibition at 20 ppm [6]: ≥ 80%
- inhibition at 20 ppm (Gaeumannomyces Graminis): ≥ 80%
- inhibition at 20 ppm (Sclerotinia Sclerotiorum): ≥ 80%
- pest or weed control at 200 ppm (Plasmopara Viticola): ≥ 80%

Compound: Cc1cscc1-c1cc2c(cc1F)COB2O [Compound 50]
- inhibition at 20 ppm (Pythium Ultimum): ≥ 80%
- inhibition at 20 ppm [1]: ≥ 80%
- inhibition at 20 ppm (Fusarium Culmorum): ≥ 80%
- pest or weed control at 200 ppm [8]: ≥ 80%
- inhibition at 20 ppm [2]: ≥ 80%
- inhibition at 20 ppm [3]: ≥ 80%
- inhibition at 20 ppm [4]: ≥ 80%
- inhibition at 20 ppm [5]: ≥ 80%
- inhibition at 20 ppm [6]: ≥ 80%
- inhibition at 20 ppm (Gaeumannomyces Graminis): ≥ 80%
- inhibition at 20 ppm (Sclerotinia Sclerotiorum): ≥ 80%
- pest or weed control at 200 ppm (Plasmopara Viticola): ≥ 80%

Compound: CO/N=C/c1ccc(-c2cc3c(cc2F)COB3O)o1 [Compound 28]
- inhibition at 20 ppm (Pythium Ultimum): ≥ 80%
- inhibition at 20 ppm [1]: ≥ 80%
- melting point: 125 to 140 °C
- inhibition at 20 ppm [5]: ≥ 80%
- pest or weed control at 200 ppm [7]: ≥ 80%

Compound: COc1nccc(-c2cc3c(cc2Cl)COB3O)c1Cl [Compound 73]
- inhibition at 20 ppm (Pythium Ultimum): ≥ 80%
- inhibition at 20 ppm [1]: ≥ 80%
- inhibition at 20 ppm (Fusarium Culmorum): ≥ 80%
- inhibition at 20 ppm [2]: ≥ 80%
- inhibition at 20 ppm [3]: ≥ 80%
- inhibition at 20 ppm [4]: ≥ 80%
- inhibition at 20 ppm [5]: ≥ 80%
- inhibition at 20 ppm [6]: ≥ 80%
- inhibition at 20 ppm (Gaeumannomyces Graminis): ≥ 80%
- inhibition at 20 ppm (Sclerotinia Sclerotiorum): ≥ 80%
- pest or weed control at 200 ppm [7]: ≥ 80%
- pest or weed control at 200 ppm (Plasmopara Viticola): ≥ 80%

Compound: OB1OCc2cc(F)c(-c3ccsc3)cc21 [Compound 12, 5-fluoro-1-hydroxy-6-(3-thienyl)-3H-2,1-benzoxaborole]
- inhibition at 20 ppm (Pythium Ultimum): ≥ 80%
- inhibition at 20 ppm [1]: ≥ 80%
- inhibition at 20 ppm (Fusarium Culmorum): ≥ 80%
- inhibition at 20 ppm [2]: ≥ 80%
- inhibition at 20 ppm [3]: ≥ 80%
- inhibition at 20 ppm [4]: ≥ 80%
- inhibition at 20 ppm [6]: ≥ 80%
- inhibition at 20 ppm (Gaeumannomyces Graminis): ≥ 80%
- inhibition at 20 ppm (Sclerotinia Sclerotiorum): ≥ 80%
- pest or weed control at 200 ppm [7]: ≥ 80%
- pest or weed control at 200 ppm (Plasmopara Viticola): ≥ 80%

Compound: Cc1cc(-c2cc3c(cc2Cl)COB3O)c(C)s1 [Compound 90]
- inhibition at 20 ppm (Pythium Ultimum): ≥ 80%
- inhibition at 20 ppm [1]: ≥ 80%
- inhibition at 20 ppm [2]: ≥ 80%
- inhibition at 20 ppm [3]: ≥ 80%
- inhibition at 20 ppm [4]: ≥ 80%
- inhibition at 20 ppm [5]: ≥ 80%
- inhibition at 20 ppm (Gaeumannomyces Graminis): ≥ 80%
- pest or weed control at 200 ppm [7]: ≥ 80%

— patent US10314308B2, “Microbiocidal benzoxaboroles” (SYNGENTA PARTICIPATIONS AG, priority 2015, dated 2019)
